Reference: patent publication US20130267533A1, “5HT1A AGONISTS FOR TREATMENT OF HIGH CHOLESTEROL” (FABRE-KRAMER PHARMACEUTICALS, INC., priority 2012, published 2013)
Counter-ions that a name gives are not always drawn. Like-named read-outs stand apart in the source and are kept apart here.

Assays:
subjects with anxiety = assay: Total cholesterol in random subset of 103 subjects from adatanserin study 790-210; assay type: in vivo, human
Text: Adatanserin is another drug with similar properties. The studies done in adatanserin were largely done on anxiety, not depression. It was not known if the cholesterol levels in subjects with anxiety are elevated. (In the small sample studied below, the levels are not elevated). One paper in subjects with panic disorder claims that paroxetine treatment elevated plasma cholesterol (Kim E J, YU B-H, Increased Cholesterol Levels After Paroxetine Treatment in Patients with panic Disorder. J Clinical Psychopharmacol 2005; 25:597-599). However, to see if adatanserin might also have cholesterol lowering properties, the inventors of the present invention examined a random subset of 103 subjects from study 790-210.

[1] = system: subjects with Major Depression; assay: Non-fasting total cholesterol at baseline and 8 weeks in 10 clinical studies of Gepirone-ER, meta-analysis; assay type: in vivo, human; settings: for cholesterol levels, SSRI vs placebo: paroxetine one study n=143 p=0.045, fluoxetine three studies n=295 p=0.014, FIG. 4
Protocol: In 10 clinical studies of the antidepressant effects of Gepirone-ER comprised of 2302 subjects with Major Depression safety measurements included non-fasting measurements of cholesterol at baseline and at 8 weeks (endpoint). A JMP-7 one way ANOVA of the data provided results for individual studies which were then analyzed by meta-analysis. […] So, analysis of the effect of gepirone on cholesterol levels in the 40-59 year range was conducted.

[2] = pre-clinical tests; cited from earlier work
[3] = system: MDD subjects over or under 200 mg/dL cholesterol; assay: Gepirone-ER antidepressant efficacy (HAMD-17) by cholesterol level, 8 double-blind MDD studies; assay type: in vivo, human; settings: for HAMD responders percent: responder = 50% decrease in HAMD-17
Text: The effects of cholesterol on gepirone-ER efficacy was investigated. […] As such, it was expected that the results for gepirone to be similar to that of Fava. […] Corresponding placebo values were generated as well.
The total population used was 10 times greater than the Fava Study addressed in the background section (Sonawalla S B, Papakostas G I, Petersen T J, Yeung A S, Smith M M, Sickinger A H, Gordon J, Israel J A, Tedlow J R, Lamon-Fava S, Fava M, Elevated cholesterol levels associated with nonresponse to fluoxetine treatment in major depressive disorder. Psychosomatics. 2002; 43:310-6). Using the cutoff value of 200 mg/dL, there were 1264 subjects above 200 mg/dL and 1225 subjects below. […] The respective average cholesterol levels were 234.3±29.7 and 169.9±21.2, similar to the Fava data.
The results there compared by t-test of odds ratio programs. The results for gepirone were examiner in 8 MDD studies. The low cholesterol group treated with gepirone-ER had 41.2% responders compared to the high cholesterol treated group 43.3% responders, a […] favoring the high cholesterol group (p=0.58)(Table 2). When the gepirone ER and placebo groups (Table 2) are compared, the high cholesterol gepirone treated group is 13.6% better than placebo (p=0.002), whereas the difference between the low cholesterol gepirone and placebo group is 0.5%, (p=0.602). However, the over 200 placebo group is 11% less than the under 200 placebo group (p=0.004).

[4] = system: post-synaptic receptors in the hippocampus; settings: cited from earlier work
[5] = Plasma levels of 3-OH gepirone after gepirone treatment; assay type: in vivo; settings: animals and humans treated with gepirone
Text: 3-OH gepirone has the same receptor binding, therefore, it is theorized that 3-OH-gepirone accounts for at least some of the effect noted with gepirone.

depressed subjects = settings: open label, cited from earlier work

With `O=C(NCCN1CCN(c2ncccn2)CC1)C12CC3CC(CC(C3)C1)C2` [Adatanserin, N-[2-[4-(2-pyrimidinyl)-1-piperazinyl]ethyl]tricyclo[3.3.1.1^3,7]decane-1-carboxamide] the “Difference in cholesterol change between adatanserin and placebo” value (subjects with anxiety; adatanserin n=76 vs placebo n=27, p=0.011) was 15.22 mg/dL, the “Total Cholesterol after treatment, mean (SD)” value (subjects with anxiety; n=76, after treatment) was 197.46 (44.1) mg/dL and the “Total Cholesterol at baseline, mean (SD)” value (subjects with anxiety; n=76, at baseline) was 204.46 (46.4) mg/dL. The “Change in Total Cholesterol” value (subjects with anxiety; n=76, baseline to after treatment) was -7.00 mg/dL.
For `Fc1ccc([C@@H]2CCNC[C@H]2COc2ccc3c(c2)OCO3)cc1` [paroxetine], the “cholesterol levels, SSRI vs placebo” value [1] was “placebo statistically better than paroxetine”.
In the case of `c1cnc(N2CCNCC2)nc1` [1-PP, 1-(2-pyrimidinyl)piperazine], the antidepressant-like characteristics [2] is given as “did not exhibit antidepressant-like characteristics”.
In the case of `CC1(C)CC(=O)N(CCCCN2CCN(c3ncccn3)CC2)C(=O)C1` [Gepirone, 4,4-dimethyl-1-[4-[-(2-pyrimidinyl)-1-piperazinyl]-butyl]-2,6-piperidinedione hydrochloride], the “HAMD change from baseline Δ means ± SD” value ([3]; cholesterol over 200 mg/dL, n=344, p=0.001 vs placebo) is reported as −9.58 ± 7.2, the HAMD responders percent ([3]; cholesterol over 200 mg/dL, n=344, p=0.002 vs placebo) is reported as 43.3% and the “HAMD change from baseline Δ means ± SD” value ([3]; cholesterol under 200 mg/dL, n=354, p=0.656 vs placebo) is reported as −9.48 ± 7.4. The HAMD responders percent ([3]; cholesterol under 200 mg/dL, n=354, p=0.602 vs placebo) was 41.2%, the “difference in responders vs placebo” value ([3]; high cholesterol group (over 200 mg/dL), p=0.002) was 13.6% and the “HAMD change from baseline, difference in means vs placebo” value ([3]; high cholesterol group, p=0.001) was −1.77 points. The “difference in responders vs placebo” value ([3]; low cholesterol group (under 200 mg/dL), p=0.602) was 0.5%, the “HAMD change from baseline, standard difference in means vs placebo” value ([3]; low cholesterol group, p=0.656) was −0.02 points and the “HAMD change from baseline, over vs. under Δ(Δ means)” value ([3]; over 200 vs under 200 mg/dL, p=0.856) was 0.10. For the same molecule, the “average drop in total cholesterol, meta-analysis” value ([1]; 10 studies, p=0.016, FIG. 6) was 2.8 mg/dL, the “number of studies with lower total cholesterol levels” value ([1]; of 10 studies) was 7 and the “change in cholesterol levels” value ([1]; patients in the 40-59 year range, FIG. 7) was -5 mg/dL.
For `CC1(C)CC(=O)N(CCCCN2CCN(c3ncccn3)CC2)C(=O)C1O` (centres unmarked) [3-OH gepirone], the “type of agonism at post-synaptic receptors” value [4] is listed as “full agonism” and the “plasma levels of metabolite relative to gepirone” value [5] is listed as “greater than that of gepirone”.
For `CNCCC(Oc1ccc(C(F)(F)F)cc1)c1ccccc1` (centres unmarked) [fluoxetine], the “cholesterol levels, SSRI vs placebo” value [1] is given as “placebo statistically better then fluoxetine”, the “response rate (50% decrease from baseline HAMD-17)” value (depressed subjects; cholesterol above 200 mg/dL) is given as 46% and the “response rate (50% decrease from baseline HAMD-17)” value (depressed subjects; cholesterol below 200 mg/dL) is given as 54%.
